Reference: US11753407B2, “Compounds for treating spinal muscular atrophy” (PTC Therapeutics, Inc., priority 2012, dated 2023)

Legend:
[1] = system: SMN2 minigene mRNA (SMN2-A minigene) in HEK293H cells; test: SMN2 minigene mRNA splicing RT-qPCR assay in cultured cells; format: cell-based, human; conditions: Homo sapiens, HEK293-H; concentration increasing full length SMN2 mRNA 1.5-fold relative to vehicle-treated cells; HEK293H cells with SMN2-A minigene, 24 hours, 7-point concentration data; read-out: EC1.5x for production of full length SMN2 mRNA
Description: The reverse transcription-quantitative PCR-based (RT-qPCR) assay is used to quantify the level of the full length SMN2 minigene mRNA containing SMN2 exon 7 in a HEK293H cell line stably transfected with said minigene and treated with a test compound.
Protocol. HEK293H cells stably transfected with the SMN2-A minigene construct described above (10,000 cells/well) are seeded in 200 μL of cell culture medium (DMEM plus 10% FBS, with 200 μg/mL hygromycin) in 96-well flat-bottom plates and the plate is immediately swirled to ensure proper dispersal of cells, forming an even monolayer of cells. Cells are allowed to attach for at least 4-6 hours. Test compounds are serially diluted 3.16-fold in 100% DMSO to generate a 7-point concentration curve. A solution of test compound (1 μL, 200× in DMSO) is added to each cell-containing well and the plate is incubated for 24 hours in a cell culture incubator (37° C., 5% CO2, 100% relative humidity). 2 replicates are prepared for each test compound concentration. The cells are then lysed in Cells-To-Ct lysis buffer and the lysate is stored at −80° C.
Primer SMN Forward A (SEQ ID NO. 1) hybridizes to a nucleotide sequence in exon 7 (nucleotide 22 to nucleotide 40), primer SMN Reverse A (SEQ ID NO. 2) hybridizes to a nucleotide sequence in the coding sequence of Firefly luciferase, SMN Probe A (SEQ ID NO. 3) hybridizes to a nucleotide sequence in exon 7 (nucleotide 50 to nucleotide 54) and exon 8 (nucleotide 1 to nucleotide 21). The combination of these three oligonucleotides detects only SMN1 or SMN2 minigenes (RT-qPCR) and will not detect endogenous SMN1 or SMN2 genes.
The SMN forward and reverse primers are used at final concentrations of 0.4 μM. The SMN probe is used at a final concentration of 0.15 μM. The GAPDH primers are used at final concentrations of 0.2 μM and the probe at 0.15 μM.
The SMN2-minigene GAPDH mix (15 μL total volume) is prepared by combining 7.5 μL of 2× RT-PCR buffer, 0.4 μL of 25× RT-PCR enzyme mix, 0.75 μL of 20× GAPDH primer-probe mix, 4.0075 μL of water, 2 μL of 10-fold diluted cell lysate, 0.06 μL of 100 μM SMN forward primer, 0.06 μL of 100 μM SMN reverse primer, and […].
PCR is carried out at the following temperatures for the indicated time: Step 1: 48° C. (15 min); Step 2: 95° C. (10 min); Step 3: 95° C. (15 sec); Step 4: 60° C. (1 min); then repeat Steps 3 and 4 for a total of 40 cycles.
Each reaction mixture contains both SMN2-A minigene and GAPDH primers/probe sets (multiplex design), allowing simultaneous measurement of the levels of two transcripts.
Two SMN spliced products are generated from the SMN2 minigene. The first spliced product containing exon 7, corresponding to full length SMN2 mRNA, is referred to herein using the term “SMN2 minigene FL.” The second spliced product lacking exon 7 is referred to herein using the term “SMN2 minigene Δ7.”
The increase of SMN2 minigene FL mRNA relative to that in cells treated with vehicle control is determined from real-time PCR data using a modified ΔΔCt method (as described in Livak and Schmittgen, Methods, 2001, 25:402-8). The amplification efficiency (E) is calculated from the slope of the amplification curve for SMN2 minigene FL and GAPDH individually. The abundances of SMN2 minigene FL and GAPDH are then calculated as (1+E)^−Ct, where Ct is the threshold value for each amplicon. The abundance of SMN2 minigene FL is normalized to GAPDH abundance. The normalized SMN2 minigene FL abundance from test compound-treated samples is then divided by normalized SMN2 minigene FL abundance from vehicle-treated cells to determine the level of SMN2 FL mRNA relative to vehicle control.
For compounds of Formula (I) or a form thereof disclosed herein, Table 4 provides the […] for production of full length SMN2 mRNA that was obtained from the 7-point concentration data generated for each test compound according to the procedure of Biological Example 2. […]

[2] = system: Smn protein in SMA patient fibroblast cells (GM03813); test: Smn protein assay in cultured cells (SMN HTRF); format: cell-based, human; conditions: SMA patient fibroblast cells, 48 hours; for EC1.5x for Smn protein expression: 7-point concentration curve, SMN HTRF, concentration producing 1.5 times Smn protein vs DMSO vehicle control; for maximum fold (Fold) increase of Smn protein: 7-point concentration data, fold relative to vehicle control
Description: The SMN HTRF (homogeneous time resolved fluorescence) assay is used to quantify the level of Smn protein in SMA patient fibroblast cells treated with test compounds.
Protocol. Cells are thawed and cultured in DMEM-10% FBS for 72 hours. Cells are trypsinized, counted and re-suspended to a concentration of 25,000 cells/mL in DMEM-10% FBS. The cell suspension is plated at 5,000 cells per well in a 96 well microtiter plate and incubated for 3 to 5 hours. […] Test compounds are serially diluted 3.16-fold in 100% DMSO to generate a 7-point concentration curve. 1 μL of test compound solution is transferred to cell-containing wells and cells are incubated for 48 hours in a cell culture incubator (37° C., 5% CO2, 100% relative humidity). Triplicate samples are set up for each test compound concentration. After 48 hours, the supernatant is removed from the wells and 25 μL of the RIPA lysis buffer, containing protease inhibitors, is added to the wells and incubated with shaking at room temperature for 1 hour. 25 μL of the diluent is added and then 35 μL of the resulting lysate is transferred to a 384-well plate, where each well contains 5 μL of the antibody solution (1:100 dilution of anti-SMN d2 and anti-SMN kryptate in SMN reconstitution buffer). The plate is centrifuged for 1 minute to bring the solution to the bottom of the wells, then incubated overnight at room temperature. Fluorescence for each well of the plate at 665 nm and 620 nm is measured on an EnVision multilabel plate reader (Perkin-Elmer).
The normalized fluorescence signal is calculated for each sample, Blank and vehicle control well by dividing the signal at 665 nm by the signal at 620 nm. Normalizing the signal accounts for possible fluorescence quenching due to the matrix effect of the lysate. The ΔF value (a measurement of Smn protein abundance as a percent value) for each sample well is calculated by subtracting the normalized average fluorescence for the Blank control wells from the normalized fluorescence for each sample well, then dividing this difference by the normalized average fluorescence for the Blank control wells and multiplying the resulting value by 100. The ΔF value for each sample well represents the Smn protein abundance from test compound-treated samples. The ΔF value for each sample well is divided by the ΔF value for the vehicle control wells to calculate the fold increase in Smn protein abundance relative to the vehicle control.
For compounds of Formula (I) or a form thereof disclosed herein, Table 9 provides the EC1.5× for Smn protein expression that was obtained from the 7-point concentration data generated for each test compound according to the procedure of Biological Example 7. The term “EC1.5× for Smn protein expression” is defined as that concentration of test compound that is effective in producing 1.5 times the amount of Smn protein in an SMA patient fibroblast cell compared to the amount produced from the DMSO vehicle control. An EC1.5× for Smn protein expression between >3 μM and ≤10 μM is indicated by one star (*), an EC1.5× between >1 μM and ≤3 μM is indicated by two stars (**), an EC1.5× between >0.3 μM and ≤1 μM is indicated by three stars (***) and an EC1.5x≤0.3 μM is indicated by four stars (****).
For compounds of Formula (I) or a form thereof disclosed herein, Table 10 provides the maximum fold (Fold) increase of Smn protein that was obtained from the 7-point concentration data generated for each test compound according to the procedure of Biological Example 7. A maximum fold increase of ≤1.2 is indicated by one star (*), a fold increase between >1.2 and ≤1.35 is indicated by two stars (**), a fold increase between >1.35 and ≤1.5 is indicated by three stars (***), a fold increase between >1.5 and ≤1.65 is indicated by four stars (****) and a fold increase >1.65 is indicated by five stars (*****).

Cc1cn2nc(-c3cc(=O)n4cc(N5C[C@@H](C)N[C@@H](C)C5)ccc4n3)cc2c(C)n1 [Compound 131, 7-[(3R,5S)-3,5-dimethylpiperazin-1-yl]-2-(4,6-dimethylpyrazolo[1,5-a]pyrazin-2-yl)-4H-pyrido[1,2-a]pyrimidin-4-one]
EC (1.5-fold increase) [1]: < 0.1 µM
EC1.5x for Smn protein expression [2]: ** (an EC1.5× between >1 μM and ≤3 μM is indicated by two stars (**))
maximum fold (Fold) increase of Smn protein [2]: *** (a fold increase between >1.35 and ≤1.5 is indicated by three stars (***))

Cc1cn2nc(-c3cc(=O)n4cc(N5CCCNCC5)ccc4n3)cc2c(C)n1 [Compound 132, 7-(1,4-diazepan-1-yl)-2-(4,6-dimethylpyrazolo[1,5-a]pyrazin-2-yl)-4H-pyrido[1,2-a]pyrimidin-4-one]
EC (1.5-fold increase) [1]: < 0.1 µM
EC1.5x for Smn protein expression [2]: **** (an EC1.5x≤0.3 μM is indicated by four stars (****))
maximum fold (Fold) increase of Smn protein [2]: ***** (a fold increase >1.65 is indicated by five stars (*****))

COc1cc(-c2cc(=O)n3cc(N4CCNCC4)ccc3n2)cc(F)c1OC [Compound 145, 2-(3-fluoro-4,5-dimethoxyphenyl)-7-(piperazin-1-yl)-4H-pyrido[1,2-a]pyrimidin-4-one]
EC (1.5-fold increase) [1]: 1 to 3 µM
maximum fold (Fold) increase of Smn protein [2]: * (A maximum fold increase of ≤1.2 is indicated by one star (*))

Cc1nc2cc(-c3cc(=O)n4cc(N5CCN[C@@H](C)C5)ccc4n3)ccc2o1 [Compound 156, 2-(2-methyl-1,3-benzoxazol-5-yl)-7-[(3S)-3-methylpiperazin-1-yl]-4H-pyrido[1,2-a]pyrimidin-4-one]
EC (1.5-fold increase) [1]: 0.3 to 1 µM
maximum fold (Fold) increase of Smn protein [2]: *** (a fold increase between >1.35 and ≤1.5 is indicated by three stars (***))

COc1ccc(-c2cc(=O)n3cc(N4CCNCC4)cc(C)c3n2)cc1OC [Compound 160, 2-(3,4-dimethoxyphenyl)-9-methyl-7-(piperazin-1-yl)-4H-pyrido[1,2-a]pyrimidin-4-one]
EC (1.5-fold increase) [1]: < 0.1 µM
EC1.5x for Smn protein expression [2]: *** (an EC1.5× between >0.3 μM and ≤1 μM is indicated by three stars (***))
maximum fold (Fold) increase of Smn protein [2]: *** (a fold increase between >1.35 and ≤1.5 is indicated by three stars (***))

COc1ccc(-c2cc(=O)n3cc(NC4CCNCC4)ccc3n2)cc1OC [Compound 187, 2-(3,4-dimethoxyphenyl)-7-(piperidin-4-ylamino)-4H-pyrido[1,2-a]pyrimidin-4-one]
EC (1.5-fold increase) [1]: 1 to 3 µM
maximum fold (Fold) increase of Smn protein [2]: ** (a fold increase between >1.2 and ≤1.35 is indicated by two stars (**))

Cn1cc(-c2cc(=O)n3cc(N4CCNCC4)ccc3n2)cn1 [Compound 192, 2-(1-methyl-1H-pyrazol-4-yl)-7-(piperazin-1-yl)-4H-pyrido[1,2-a]pyrimidin-4-one]
EC (1.5-fold increase) [1]: 1 to 3 µM
EC1.5x for Smn protein expression [2]: ** (an EC1.5× between >1 μM and ≤3 μM is indicated by two stars (**))
maximum fold (Fold) increase of Smn protein [2]: ***** (a fold increase >1.65 is indicated by five stars (*****))

COc1ccc(-c2cc(=O)n3cc(N4CCC(N)CC4)ccc3c2)cc1F [Compound 201, 7-(4-aminopiperidin-1-yl)-2-(3-fluoro-4-methoxyphenyl)-4H-quinolizin-4-one]
EC (1.5-fold increase) [1]: < 0.1 µM
EC1.5x for Smn protein expression [2]: *** (an EC1.5× between >0.3 μM and ≤1 μM is indicated by three stars (***))
maximum fold (Fold) increase of Smn protein [2]: *** (a fold increase between >1.35 and ≤1.5 is indicated by three stars (***))

COc1ccc(-c2cc(=O)n3cc(N4CCC(N(C)C)CC4)ccc3c2)cc1F [Compound 203, 7-[4-(dimethylamino)piperidin-1-yl]-2-(3-fluoro-4-methoxyphenyl)-4H-quinolizin-4-one]
EC (1.5-fold increase) [1]: 1 to 3 µM
maximum fold (Fold) increase of Smn protein [2]: * (A maximum fold increase of ≤1.2 is indicated by one star (*))

COc1ccc(-c2cc(=O)n3cc(OC4CCN(C)CC4)ccc3n2)cc1OC [Compound 235, 2-(3,4-dimethoxyphenyl)-7-[(1-methylpiperidin-4-yl)oxy]-4H-pyrido[1,2-a]pyrimidin-4-one]
EC (1.5-fold increase) [1]: 0.3 to 1 µM
EC1.5x for Smn protein expression [2]: ** (an EC1.5× between >1 μM and ≤3 μM is indicated by two stars (**))
maximum fold (Fold) increase of Smn protein [2]: **** (a fold increase between >1.5 and ≤1.65 is indicated by four stars (****))
